Reference: ChEMBL document CHEMBL1909046, “DrugMatrix in vitro pharmacology data”

Key:
[1] = molecular target: Beta-3 adrenergic receptor (Homo sapiens, UniProt P13945); assay: DRUGMATRIX: Adrenergic beta3 radioligand binding (ligand: [125I] Cyanopindolol); format: cell membranes, HEK293, Membrane; settings: hek293; Not Active = under 50% inhibition at 10 µM
[2] = molecular target: 5-hydroxytryptamine receptor 4 (Cavia porcellus, UniProt O70528); format: cell membranes, Dunkin-Hartley, Striatum, Membrane; also: in other assays of this panel Not Active means under 50% inhibition at 10 µM
Melanocortin receptor 4 = Melanocortin receptor 4 (Homo sapiens, UniProt P32245); format: cell membranes, HEK293, Membrane; settings: hek293; also: in other assays of this panel Not Active means under 50% inhibition at 10 µM
[3] = molecular target: T1, Muscarinic acetylcholine receptor M2 (Homo sapiens, UniProt P08172); format: cell membranes, CHO-K1, Membrane; settings: cho-k1; also: in other assays of this panel Not Active means under 50% inhibition at 10 µM
T1 sequence (P08172 whole entry): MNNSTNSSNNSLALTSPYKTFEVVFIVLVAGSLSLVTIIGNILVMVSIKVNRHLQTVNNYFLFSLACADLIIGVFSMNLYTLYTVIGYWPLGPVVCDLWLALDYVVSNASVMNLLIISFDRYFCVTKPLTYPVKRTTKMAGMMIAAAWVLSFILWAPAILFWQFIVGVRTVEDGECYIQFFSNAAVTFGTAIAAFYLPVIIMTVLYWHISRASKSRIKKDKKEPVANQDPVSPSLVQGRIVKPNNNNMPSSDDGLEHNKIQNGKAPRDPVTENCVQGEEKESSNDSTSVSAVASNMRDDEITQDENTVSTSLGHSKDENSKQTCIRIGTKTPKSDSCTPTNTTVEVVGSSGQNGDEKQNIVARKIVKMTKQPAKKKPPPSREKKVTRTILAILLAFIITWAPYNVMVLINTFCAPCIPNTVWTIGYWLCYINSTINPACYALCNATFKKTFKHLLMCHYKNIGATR

[4] = molecular target: Voltage-gated inwardly rectifying potassium channel KCNH2 (Homo sapiens, UniProt Q12809); settings: hek293; also: in other assays of this panel Not Active means under 50% inhibition at 10 µM
Voltage-gated inwardly rectifying potassium channel KCNH2, sequence (Q12809 whole entry): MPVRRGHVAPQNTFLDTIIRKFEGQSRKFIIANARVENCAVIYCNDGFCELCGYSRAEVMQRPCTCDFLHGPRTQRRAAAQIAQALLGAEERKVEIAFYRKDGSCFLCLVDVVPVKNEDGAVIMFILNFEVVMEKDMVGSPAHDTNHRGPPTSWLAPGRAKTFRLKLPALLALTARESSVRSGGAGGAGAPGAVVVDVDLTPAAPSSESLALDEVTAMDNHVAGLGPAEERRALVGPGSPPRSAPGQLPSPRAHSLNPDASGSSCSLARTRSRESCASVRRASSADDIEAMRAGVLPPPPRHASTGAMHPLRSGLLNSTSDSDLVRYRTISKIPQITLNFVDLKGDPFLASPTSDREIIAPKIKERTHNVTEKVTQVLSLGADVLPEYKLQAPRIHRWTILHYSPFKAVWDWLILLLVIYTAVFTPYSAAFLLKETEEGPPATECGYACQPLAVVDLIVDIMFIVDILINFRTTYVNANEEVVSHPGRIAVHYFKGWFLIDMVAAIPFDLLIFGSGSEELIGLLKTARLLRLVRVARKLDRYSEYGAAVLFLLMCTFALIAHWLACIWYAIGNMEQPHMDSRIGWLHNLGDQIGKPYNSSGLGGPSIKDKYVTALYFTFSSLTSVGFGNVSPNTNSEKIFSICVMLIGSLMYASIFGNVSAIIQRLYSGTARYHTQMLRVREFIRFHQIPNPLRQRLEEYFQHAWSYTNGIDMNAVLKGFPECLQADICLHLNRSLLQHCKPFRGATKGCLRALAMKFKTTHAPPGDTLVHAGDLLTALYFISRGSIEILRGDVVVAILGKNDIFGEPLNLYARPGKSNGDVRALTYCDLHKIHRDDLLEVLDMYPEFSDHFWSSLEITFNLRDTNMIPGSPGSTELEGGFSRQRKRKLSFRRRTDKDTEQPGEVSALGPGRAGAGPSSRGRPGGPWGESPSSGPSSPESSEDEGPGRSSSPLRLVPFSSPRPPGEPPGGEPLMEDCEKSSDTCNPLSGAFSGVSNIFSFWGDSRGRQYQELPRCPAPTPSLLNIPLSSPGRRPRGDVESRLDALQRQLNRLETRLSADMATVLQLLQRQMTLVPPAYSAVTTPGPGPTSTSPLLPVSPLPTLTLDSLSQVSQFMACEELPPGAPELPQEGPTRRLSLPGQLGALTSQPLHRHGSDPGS

Beta-3 adrenergic receptor, sequence (P13945 whole entry): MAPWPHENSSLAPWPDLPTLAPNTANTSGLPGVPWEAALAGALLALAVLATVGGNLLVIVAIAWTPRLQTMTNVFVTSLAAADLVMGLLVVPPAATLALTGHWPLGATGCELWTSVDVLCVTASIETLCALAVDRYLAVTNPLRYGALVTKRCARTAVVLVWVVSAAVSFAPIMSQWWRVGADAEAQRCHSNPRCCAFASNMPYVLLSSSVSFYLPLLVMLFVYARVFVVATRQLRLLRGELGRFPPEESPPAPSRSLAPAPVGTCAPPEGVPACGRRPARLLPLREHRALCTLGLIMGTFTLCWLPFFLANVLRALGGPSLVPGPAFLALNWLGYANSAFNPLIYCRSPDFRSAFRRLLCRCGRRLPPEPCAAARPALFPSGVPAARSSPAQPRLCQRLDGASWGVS
Melanocortin receptor 4, sequence (P32245 whole entry): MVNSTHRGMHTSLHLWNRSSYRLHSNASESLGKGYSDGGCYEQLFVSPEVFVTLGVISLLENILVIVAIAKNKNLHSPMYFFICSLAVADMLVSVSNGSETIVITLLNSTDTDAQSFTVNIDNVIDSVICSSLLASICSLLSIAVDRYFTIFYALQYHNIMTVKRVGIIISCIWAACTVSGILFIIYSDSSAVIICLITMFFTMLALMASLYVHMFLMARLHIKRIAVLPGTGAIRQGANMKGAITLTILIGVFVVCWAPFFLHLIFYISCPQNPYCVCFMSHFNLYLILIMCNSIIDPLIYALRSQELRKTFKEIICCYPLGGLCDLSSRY
5-hydroxytryptamine receptor 4, sequence (O70528 whole entry): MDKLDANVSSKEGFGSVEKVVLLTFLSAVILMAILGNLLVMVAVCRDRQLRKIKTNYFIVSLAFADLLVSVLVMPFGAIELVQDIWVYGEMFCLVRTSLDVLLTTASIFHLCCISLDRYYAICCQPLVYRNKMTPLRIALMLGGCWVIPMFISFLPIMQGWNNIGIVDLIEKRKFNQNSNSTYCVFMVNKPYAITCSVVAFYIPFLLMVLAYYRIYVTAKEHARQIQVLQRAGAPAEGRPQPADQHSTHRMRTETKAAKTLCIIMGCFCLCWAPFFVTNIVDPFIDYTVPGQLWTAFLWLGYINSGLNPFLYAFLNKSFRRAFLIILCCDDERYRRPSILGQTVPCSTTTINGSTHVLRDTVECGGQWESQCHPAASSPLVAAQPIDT

Compound	IC50 [1]	IC50 [2]	IC50 (Melanocortin receptor 4)	IC50 [3]	IC50 [4]	Ki [4]	IC50 ([2]; read-out: IC50) [nM]	Ki ([2]; read-out: Ki) [nM]	Ki [1]	Ki [2]	Ki (Melanocortin receptor 4)	Ki [3]
Cc1nnc2n1-c1ccc(Cl)cc1C(c1ccccc1)=NC2 [ALPRAZOLAM]	Not Active	Not Active	Not Active	Not Active	Not Active	Not Active						
COC(=O)CCc1ccc(OCC(O)CNC(C)C)cc1 (configuration not stated) [ESMOLOL]	Not Active	Not Active	Not Active	Not Active	Not Active	Not Active						
COc1ccc2cc3[n+](cc2c1OC)CCc1cc2c(cc1-3)OCO2.[Cl-] [BERBERINE CHLORIDE]	Not Active		Not Active	Not Active	Not Active	Not Active	2220	370				
NC(=O)C[S+]([O-])C(c1ccccc1)c1ccccc1 (configuration not stated) [MODAFINIL]	Not Active	Not Active	Not Active	Not Active	Not Active	Not Active						
CC(C)=CCC/C(C)=C/CO [GERANIOL]	Not Active	Not Active	Not Active	Not Active	Not Active	Not Active						
NCCCC(O)(P(=O)(O)O)P(=O)(O)O [ALENDRONIC ACID]	Not Active	Not Active	Not Active	Not Active								
C[C@@H]1CC[C@@]2(OC1)O[C@H]1[C@@H](O)[C@H]3[C@@H]4CC[C@H]5C[C@@H](O[C@@H]6O[C@H](CO)[C@H](O[C@@H]7O[C@H](CO)C(O)[C@H](O[C@@H]8OC[C@@H](O)[C@H](O)[C@H]8O)[C@H]7O[C@@H]7O[C@H](CO)[C@H](O)[C@H](O[C@@H]8O[C@H](CO)[C@@H](O)[C@H](O)[C@H]8O)[C@H]7O)[C@H](O)[C@H]6O)[C@H](O)C[C@]5(C)[C@H]4CC[C@]3(C)[C@H]1[C@@H]2C (some centres not stated) [DIGITONIN]	Not Active	Not Active	Not Active	Not Active	Not Active	Not Active						
O=C1CN=C(c2ccccc2Cl)c2cc([N+](=O)[O-])ccc2N1 [CLONAZEPAM]	Not Active	Not Active	Not Active	Not Active	Not Active	Not Active						
AURANOFIN	Not Active	Not Active	Not Active	Not Active	Not Active	Not Active			Not Active	Not Active	Not Active	Not Active
COC(=O)Nc1nc2ccc(C(=O)c3cccs3)cc2[nH]1 [NOCODAZOLE]	Not Active	Not Active	Not Active	Not Active	Not Active	Not Active						
C[C@H]1O[C@@H](n2cc(F)c(=O)[nH]c2=O)[C@H](O)[C@@H]1O [DOXIFLURIDINE]	Not Active	Not Active	Not Active	Not Active	Not Active	Not Active						
CC(C(=O)O)c1ccc2oc(-c3ccc(Cl)cc3)nc2c1 (configuration not stated) [BENOXAPROFEN]	Not Active	Not Active	Not Active	Not Active	Not Active	Not Active						
GADOPENTETATE DIMEGLUMINE	Not Active	Not Active	Not Active	Not Active	Not Active	Not Active			Not Active	Not Active	Not Active	Not Active
Nc1ccc2c3c(cccc13)C(=O)NC2=O	Not Active	Not Active	Not Active	Not Active	Not Active	Not Active						
C[n+]1ccccc1/C=N/O.[Cl-] [PRALIDOXIME CHLORIDE]	Not Active		Not Active	Not Active	Not Active	Not Active				Not Active		
NNc1nncc2ccccc12 [HYDRALAZINE]	Not Active	Not Active	Not Active	Not Active	Not Active	Not Active						
O=c1cnn([C@@H]2O[C@H](CO)[C@@H](O)[C@H]2O)c(=O)[nH]1 [6-AZAURIDINE]	Not Active	Not Active	Not Active	Not Active	Not Active	Not Active						
Cn1c(=O)c2c(ncn2CC(O)CO)n(C)c1=O (configuration not stated) [DYPHYLLINE]	Not Active	Not Active	Not Active	Not Active	Not Active	Not Active						
O=c1cc(N2CCOCC2)oc2c(-c3ccccc3)cccc12 [LY-294002]	Not Active	Not Active	Not Active	Not Active	Not Active	Not Active						

Compound	IC50 [1]	IC50 [2]	IC50 (Melanocortin receptor 4)	IC50 [3]	IC50 [4]	Ki [4]	IC50 ([2]; read-out: IC50) [nM]	Ki ([2]; read-out: Ki) [nM]	Ki [1]	Ki [2]	Ki (Melanocortin receptor 4)	Ki [3]
C[C@@H]1C[C@H]2[C@@H]3CCC4=CC(=O)C=C[C@]4(C)[C@@]3(F)[C@@H](O)C[C@]2(C)[C@H]1C(=O)CO [DESOXIMETASONE]	Not Active	Not Active	Not Active	Not Active	Not Active	Not Active						
CC(C)(C)NC(=O)[C@H]1CC[C@H]2[C@@H]3CC[C@H]4NC(=O)C=C[C@]4(C)[C@H]3CC[C@]12C [FINASTERIDE]	Not Active	Not Active	Not Active	Not Active	Not Active	Not Active						
CCn1cc(C(=O)O)c(=O)c2cnc(N3CCCC3)nc21 [PIROMIDIC ACID]	Not Active	Not Active	Not Active	Not Active	Not Active	Not Active						
CC1(C)S[C@@H]2[C@H](NC(=O)[C@H](N)c3ccccc3)C(=O)N2[C@H]1C(=O)O [AMPICILLIN]	Not Active	Not Active	Not Active	Not Active								
CCN(CC)CCOCCC1=CCC2CC1C2(C)C (configuration not stated) [MYRTECAINE]	Not Active	Not Active	Not Active	Not Active								
COC(=O)Nc1nc2ccc([S+]([O-])c3ccccc3)cc2[nH]1 (configuration not stated) [OXFENDAZOLE]	Not Active	Not Active	Not Active	Not Active	Not Active	Not Active						
CC(=O)[C@@]1(O)CC[C@H]2[C@@H]3CCC4=CC(=O)CC[C@]4(C)[C@H]3CC[C@@]21C [HYDROXYPROGESTERONE]	Not Active	Not Active	Not Active	Not Active	Not Active	Not Active						
Oc1c(Cl)cc(Cl)c(Cl)c1Cc1c(O)c(Cl)cc(Cl)c1Cl [HEXACHLOROPHENE]	Not Active	Not Active	Not Active	Not Active	Not Active	Not Active						
COC1=C(OC)C(=O)C(CCCCCCCCCCO)=C(C)C1=O [IDEBENONE]	Not Active	Not Active	Not Active	Not Active	Not Active	Not Active						
C[C@]12C=CC(=O)C=C1CC[C@@H]1[C@@H]2[C@@H](O)C[C@@]2(C)[C@H]1CC[C@]2(O)C(=O)CO [PREDNISOLONE]	Not Active	Not Active	Not Active	Not Active	Not Active	Not Active						
O=C1O[C@H]([C@@H](O)CO)C(O)=C1O [ASCORBIC ACID]	Not Active	Not Active	Not Active	Not Active	Not Active	Not Active						
COc1ccc(C2C(=O)c3ccccc3C2=O)cc1 [ANISINDIONE]	Not Active	Not Active	Not Active	Not Active	Not Active	Not Active						
Brc1c(NC2=NCCN2)ccc2nccnc12 [BRIMONIDINE]	Not Active	Not Active	Not Active	Not Active	Not Active	Not Active						
COc1cc(N)c(Cl)cc1C(=O)NC1CCN(CCCOc2ccc(F)cc2)CC1OC (configuration not stated) [CISAPRIDE]	Not Active		Not Active	Not Active								
CCCNCC(O)COc1ccccc1C(=O)CCc1ccccc1 (configuration not stated) [PROPAFENONE]		Not Active	Not Active	Not Active								
CC(C)NCC(O)COc1cccc2[nH]ccc12 (configuration not stated) [PINDOLOL]		Not Active	Not Active	Not Active	Not Active	Not Active						
COc1cc2nc(N3CCN(C(=O)c4ccco4)CC3)nc(N)c2cc1OC [PRAZOSIN]	Not Active	Not Active	Not Active	Not Active								
CN1[C@@H]2CC[C@H]1C[C@@H](OC(=O)C(CO)c1ccccc1)C2 (some centres not stated) [ATROPINE]	Not Active	Not Active	Not Active									
CC[C@H]1CN2CCc3cc(OC)c(OC)cc3[C@@H]2C[C@@H]1C[C@H]1NCCc2cc(OC)c(OC)cc21 [EMETINE]	Not Active	Not Active	Not Active	Not Active								
